From US9730914B2, “3,5-diaminopyrazole kinase inhibitors” (Axikin Pharmaceuticals, Inc., priority 2014, dated 2017)

How the values were obtained:
[1] = molecular target: T1, kinase domain protein of RC kinase (RCK) (Homo sapiens, UniProt Q56UN5); test: Kinase competition binding assay (Kd, qPCR readout), RC kinase; settings: Kd class, read-out: RCK Activity Level
T1 construct: made in house; host or cells: E. coli BL21-derived host (T7 phage) or HEK-293
T1 sequence (Q56UN5 1061-1324 limits assumed): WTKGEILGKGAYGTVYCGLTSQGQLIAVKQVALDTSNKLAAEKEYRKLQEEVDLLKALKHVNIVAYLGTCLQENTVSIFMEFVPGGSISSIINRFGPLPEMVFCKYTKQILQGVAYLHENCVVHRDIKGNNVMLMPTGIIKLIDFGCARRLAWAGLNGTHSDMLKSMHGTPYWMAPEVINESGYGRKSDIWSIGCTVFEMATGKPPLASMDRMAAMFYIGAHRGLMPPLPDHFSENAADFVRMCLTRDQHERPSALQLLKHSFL
Method in brief: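 Competition binding: DNA-tagged kinase (T7 phage or HEK-293-expressed) plus immobilized biotinylated ligand beads and compound, 1 h at room temperature, 1% DMSO. Bead-bound kinase eluted and quantified by qPCR. Kd from 11-point 3-fold dilution, top 30,000 nM, retested lower if below 0.5 nM.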

[2] = molecular target: T2, JAK2 (Homo sapiens, UniProt O60674); test: Kinase competition binding assay (Kd, qPCR readout), JAK2; settings: for Kd: Kd class, JAK2, read-out: JAK2 Activity Level; for RCK:JAK2 selectivity ratio: ratio Kd (JAK2): Kd(RCK)
T2 construct: made in house; host or cells: E. coli BL21-derived host (T7 phage) or HEK-293
T2 sequence (O60674 840-1132 limits assumed): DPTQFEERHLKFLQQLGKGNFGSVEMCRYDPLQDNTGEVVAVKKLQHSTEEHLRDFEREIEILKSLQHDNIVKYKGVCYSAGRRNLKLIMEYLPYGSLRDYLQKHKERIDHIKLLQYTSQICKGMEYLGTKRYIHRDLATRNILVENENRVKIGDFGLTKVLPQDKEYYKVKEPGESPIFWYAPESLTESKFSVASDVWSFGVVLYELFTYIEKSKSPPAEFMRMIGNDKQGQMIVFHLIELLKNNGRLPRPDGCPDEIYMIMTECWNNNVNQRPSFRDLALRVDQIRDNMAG
Method in brief: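 Competition binding: DNA-tagged kinase (T7 phage or HEK-293-expressed), immobilized biotinylated ligand beads and compound in SeaBlock/PBS/Tween/DTT buffer, 1 hour at room temperature; bound kinase eluted and quantified by qPCR. Kd from 11-point 3-fold dilution, top 30,000 nM typically, final DMSO 1%.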

[3] = molecular target: T3, JAK3 (Homo sapiens, UniProt P52333); test: Kinase competition binding assay (Kd, qPCR readout), JAK3; settings: for Kd: Kd class, JAK3, read-out: JAK3 Activity Level; for RCK:JAK3 selectivity ratio: ratio Kd (JAK3): Kd (RCK)
T3 construct: made in house; host or cells: E. coli BL21-derived host (T7 phage) or HEK-293
T3 sequence (P52333 811-1124 limits assumed): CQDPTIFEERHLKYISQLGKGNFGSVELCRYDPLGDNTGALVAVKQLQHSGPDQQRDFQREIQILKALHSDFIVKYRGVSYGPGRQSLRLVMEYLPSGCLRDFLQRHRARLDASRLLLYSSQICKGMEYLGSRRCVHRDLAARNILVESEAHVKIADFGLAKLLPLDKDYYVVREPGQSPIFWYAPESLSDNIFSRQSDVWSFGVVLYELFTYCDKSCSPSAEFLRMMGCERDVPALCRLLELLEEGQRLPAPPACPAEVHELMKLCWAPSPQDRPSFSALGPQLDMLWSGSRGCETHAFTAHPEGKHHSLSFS
Method in brief: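 Kd values were derived from 11-point, 3-fold compound series at 1% DMSO, usually topping at 30,000 nM, with retesting from a lower top when under 0.5 nM. It competed with bead-immobilized ligand for 1 h at room temperature, and the captured kinase was measured by qPCR after elution.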

| Kd [1] | Kd [2] | Kd [3] | Compound | RCK:JAK2 selectivity ratio [2] | RCK:JAK3 selectivity ratio [3] |
| --- | --- | --- | --- | --- | --- |
| < 50 nM | < 50 nM | < 50 nM | NC(=O)c1c(Nc2ccc(S(N)(=O)=O)cc2)n[nH]c1NCc1ccc(O)cc1 [reference compound] | D (D represents Kd(JAK2): Kd (RCK)<1) | D (D represents Kd (JAK3): Kd(RCK)<1) |
| < 50 nM | < 50 nM | < 50 nM | NC(=O)c1c(Nc2ccc(-c3ccccn3)cc2)n[nH]c1NCc1ccc(O)cc1 [reference compound] | D (D represents Kd(JAK2): Kd (RCK)<1) | C (C represents 1<Kd (JAK3): Kd (RCK)<10) |
| 100 to 1000 nM | 50 to 100 nM | 100 to 1000 nM | NC(=O)c1c(Nc2ccc(N)cc2)n[nH]c1NCc1ccc(O)cc1 [reference compound] | D (D represents Kd(JAK2): Kd (RCK)<1) | D (D represents Kd (JAK3): Kd(RCK)<1) |
| < 50 nM | < 50 nM | < 50 nM | NC(=O)c1c(Nc2ccc(CN3CCCC3)cc2)n[nH]c1NCc1ccc(O)cc1 [reference compound] | D (D represents Kd(JAK2): Kd (RCK)<1) | D (D represents Kd (JAK3): Kd(RCK)<1) |
| < 50 nM | < 50 nM | < 50 nM | NC(=O)c1c(Nc2ccc(N3CCSCC3)cc2)n[nH]c1NCc1ccc(O)cc1 [reference compound] | D (D represents Kd(JAK2): Kd (RCK)<1) | C (C represents 1<Kd (JAK3): Kd (RCK)<10) |
| < 50 nM | < 50 nM | 50 to 100 nM | NC(=O)c1c(Nc2cnc(N3CCOCC3)c(Cl)c2)n[nH]c1NCc1ccc(O)cc1 [reference compound] | C (C represents 1<Kd (JAK2): Kd (RCK)<10) | C (C represents 1<Kd (JAK3): Kd (RCK)<10) |
| < 50 nM | < 50 nM | < 50 nM | NC(=O)c1c(Nc2ccc(N3CCC(F)CC3)cc2)n[nH]c1NCc1ccc(O)cc1 [reference compound] | D (D represents Kd(JAK2): Kd (RCK)<1) | D (D represents Kd (JAK3): Kd(RCK)<1) |
| < 50 nM | < 50 nM | < 50 nM | C[C@@H]1CN(c2ccc(Nc3n[nH]c(NCc4ccc(O)cc4)c3C(N)=O)cc2Cl)C[C@H](C)O1 [reference compound] | D (D represents Kd(JAK2): Kd (RCK)<1) | C (C represents 1<Kd (JAK3): Kd (RCK)<10) |
| < 50 nM | < 50 nM | < 50 nM | NC(=O)c1c(Nc2ccc(N3CCN(c4ncccn4)CC3)cc2)n[nH]c1NCc1ccc(O)cc1 [reference compound] | C (C represents 1<Kd (JAK2): Kd (RCK)<10) | C (C represents 1<Kd (JAK3): Kd (RCK)<10) |
| < 50 nM | < 50 nM | < 50 nM | CN1CCN(c2ccc(Nc3n[nH]c(NCc4ccc(O)cc4)c3C(N)=O)cc2Cl)CC1 [reference compound] | D (D represents Kd(JAK2): Kd (RCK)<1) | C (C represents 1<Kd (JAK3): Kd (RCK)<10) |
| < 50 nM | < 50 nM | < 50 nM | NC(=O)c1c(Nc2ccc(NC(=O)c3ccc(F)cc3)cc2)n[nH]c1NCc1ccc(O)cc1 [reference compound] | C (C represents 1<Kd (JAK2): Kd (RCK)<10) | C (C represents 1<Kd (JAK3): Kd (RCK)<10) |

Further lines, the compound ahead of its results:

| Compound | Kd [1] | Kd [2] | Kd [3] | RCK:JAK2 selectivity ratio [2] | RCK:JAK3 selectivity ratio [3] |
| --- | --- | --- | --- | --- | --- |
| NC(=O)c1c(Nc2ccc(N3CCCCC3)cc2)n[nH]c1NCc1ccc(O)cc1 [reference compound] | < 50 nM | < 50 nM | < 50 nM | C (C represents 1<Kd (JAK2): Kd (RCK)<10) | C (C represents 1<Kd (JAK3): Kd (RCK)<10) |
| NC(=O)c1c(Nc2ccc(N3CCC(Cl)CC3)cc2)n[nH]c1NCc1ccc(O)cc1 [reference compound] | < 50 nM | < 50 nM | < 50 nM | D (D represents Kd(JAK2): Kd (RCK)<1) | C (C represents 1<Kd (JAK3): Kd (RCK)<10) |
| CC(=O)Nc1cccc(Nc2n[nH]c(NCc3cc(C)c(O)c(C)c3)c2C(N)=O)c1 [Compound 40, 3-((3-acetamidophenyl)amino)-5-((4-hydroxy-3,5-dimethylbenzyl)amino)-1H-pyrazole-4-carboxamide] | > 1000 nM | > 1000 nM | > 1000 nM | C (C represents 1<Kd (JAK2): Kd (RCK)<10) | C (C represents 1<Kd (JAK3): Kd (RCK)<10) |
| Cc1cc(CNc2[nH]nc(Nc3ccc(-c4cc[nH]n4)cc3)c2C(N)=O)cc(C)c1O [Compound 54, 3-((4-(1H-pyrazol-3-yl)phenyl)amino)-5-((4-hydroxy-3,5-dimethylbenzyl)amino)-1H-pyrazole-4-carboxamide] | 100 to 1000 nM | > 1000 nM | > 1000 nM | B (B represents 10<Kd(JAK2): Kd (RCK)<100) | B (B represents 10<Kd (JAK3): Kd (RCK)<100) |
| COc1ccccc1C(=O)Nc1ccc(Nc2n[nH]c(NCc3cc(C)c(O)c(C)c3)c2C(N)=O)cc1 [Compound 55, 5-((4-hydroxy-3,5-dimethylbenzyl)amino)-3-((4-(2-methoxybenzamido)phenyl)amino)-1H-pyrazole-4-carboxamide] | 100 to 1000 nM | > 1000 nM | > 1000 nM | B (B represents 10<Kd(JAK2): Kd (RCK)<100) | B (B represents 10<Kd (JAK3): Kd (RCK)<100) |
| Cc1cc(CNc2[nH]nc(Nc3ccc(N4CCOCC4)cc3)c2C(N)=O)cc(C)c1O [Compound 3, 5-((4-hydroxy-3,5-dimethylbenzyl)amino)-3-((4-morpholinophenyl)amino)-1H-pyrazole-4-carboxamide] | < 50 nM | 100 to 1000 nM | > 1000 nM | B (B represents 10<Kd(JAK2): Kd (RCK)<100) | A (A represents Kd (JAK3): Kd (RCK)>100) |
| COc1ccc(Nc2n[nH]c(NCc3cc(C)c(O)c(C)c3)c2C(N)=O)cc1 [drawing 180, reference compound] | < 50 nM | < 50 nM | < 50 nM | – | – |
| Cc1cc(CNc2[nH]nc(Nc3ccc(N4CCC(F)CC4)cc3)c2C(N)=O)cc(C)c1O [Compound 25, 3-((4-(4-fluoropiperidin-1-yl)phenyl)amino)-5-((4-hydroxy-3,5-dimethylbenzyl)amino)-1H-pyrazole-4-carboxamide] | 100 to 1000 nM | > 1000 nM | > 1000 nM | C (C represents 1<Kd (JAK2): Kd (RCK)<10) | B (B represents 10<Kd (JAK3): Kd (RCK)<100) |
| Cc1cc(CNc2[nH]nc(Nc3ccc(N4CCOCC4)cn3)c2C(N)=O)cc(C)c1O [Compound 11, 5-((4-hydroxy-3,5-dimethylbenzyl)amino)-3-((5-morpholinopyridin-2-yl)amino)-1H-pyrazole-4-carboxamide] | 50 to 100 nM | 100 to 1000 nM | > 1000 nM | C (C represents 1<Kd (JAK2): Kd (RCK)<10) | B (B represents 10<Kd (JAK3): Kd (RCK)<100) |
| Cc1cc(CNc2[nH]nc(Nc3cnc(N4CCOCC4)c(Cl)c3)c2C(N)=O)cc(C)c1O [Compound 5, 3-((5-chloro-6-morpholinopyridin-3-yl)amino)-5-((4-hydroxy-3,5-dimethylbenzyl)amino)-1H-pyrazole-4-carboxamide] | 100 to 1000 nM | > 1000 nM | > 1000 nM | B (B represents 10<Kd(JAK2): Kd (RCK)<100) | B (B represents 10<Kd (JAK3): Kd (RCK)<100) |
| Cc1cc(CNc2[nH]nc(Nc3ccc(-c4ccccc4)cc3)c2C(N)=O)cc(C)c1O [Compound 18, 3-([1,1′-biphenyl]-4-ylamino)-5-((4-hydroxy-3,5-dimethylbenzyl)amino)-1H-pyrazole-4-carboxamide] | > 1000 nM | > 1000 nM | > 1000 nM | C (C represents 1<Kd (JAK2): Kd (RCK)<10) | C (C represents 1<Kd (JAK3): Kd (RCK)<10) |
| Cc1cc(CNc2[nH]nc(Nc3ccc(N4CCN(c5ncccn5)CC4)cc3)c2C(N)=O)cc(C)c1O [Compound 44, 5-((4-hydroxy-3,5-dimethylbenzyl)amino)-3-((4-(4-(pyrimidin-2-yl)piperazin-1-yl)phenyl)amino)-1H-pyrazole-4-carboxamide] | 100 to 1000 nM | > 1000 nM | > 1000 nM | B (B represents 10<Kd(JAK2): Kd (RCK)<100) | B (B represents 10<Kd (JAK3): Kd (RCK)<100) |
